Measured values as given in patent US8647643B2, “Farnesoid-X-receptor antagonist as a vaccine adjuvant” (priority 2008, dated 2014).

Legend:
[1] = test system: rHBsAg antigen; assay: Anti-HBsAg antibody titers after immunization of rats with rHBsAg plus BB adjuvant; type: in vivo; conditions: Wistar rats, rHBsAg 10 μg intramuscular day 0, serum every 14 days; BB-50 uM, BB-5 uM
[2] = test system: rDNA coding Rabies antigen; set-up: species or system Swiss albino mice; conditions: mouse, in vivo
[3] = test system: inactivated rabies virus (Rabipur); set-up: species or system mice; conditions: mouse, in vivo
[4] = test system: Recombinant NE protein of hepatitis E virus; assay: Sero-conversion after recombinant NE protein of hepatitis E virus mixed with BB; type: in vivo; conditions: 1 μg NE protein with 5 μM of BB, intramuscularly
[5] = test system: cancer cells (Mia-paca 2); assay: Interferon gamma ELISPOT on splenocytes after immunization with cancer cells with/without BB; type: in vivo, mice
[6] = Water solubility (statement); type: physicochemical

SMILES: CC(=O)C1=CC[C@H]2[C@@H]3CC=C4C[C@@H](O)CC[C@]4(C)[C@H]3CC[C@]12C [BB, 3β-hydroxy-5,16-pregnadien-20-one]
- ranking as adjuvant (anti-HBsAg antibodies) [1]: lead adjuvants
- day on which antibody titers are protective, after 1st dose of vaccine [2]: 28 days
- time the titers remained protective [2]: about 100 days
- antibody response compared with rabies vaccine without adjuvant [3]: faster and stronger response
- day on which titers were protective [3]: 14 days
- sero-conversion ([4]; after 2nd injection given 2 weeks later): 100%
- sero-conversion ([4]; day 14 after 1st injection): 60%
- effect of the generated immune response on tumor size ([5]; BB with cancer cells (Mia-paca 2)): reduction of tumor size
- IFN-g ELISPOT response relative to the mycobacterium adjuvanted group ([5]; doses day 1 and day 21, splenocytes day 28): more then three times greater response
- water solubility [6]: water insoluble
